Assay results: patent publication US12336536B2, “Method for controlling herbicide resistant or tolerant weeds” (BASF Agro B.V., priority 2015, dated 2025)

What was measured:
[1] = system: blackgrass (ALOMY) biotypes; assay: Greenhouse test, control of resistant weed biotypes, post-emergence, blackgrass; type: in vivo, Alopecurus myosuroides; settings: post-emergence, scale 0 to 100
Procedure: (§1) The herbicidal activity of herbicide A on resistant weed biotypes was tested in comparison with certain commercial herbicides by the following greenhouse experiments:
(§2) The culture containers used were plastic flowerpots containing loamy sand with approximately 3.0% of humus as the substrate. The seeds of the test plants were sown separately for each species. Six blackgrass (ALOMY) (10-103, 10-170, 09-591, 10-123, 11-215, 11-146) and six ryeg rass (LOLMU) (12-166, 12-143, 12-165, 12-307, 13-304, 13-313) biotypes with varying degrees of resistance towards a range of modes of action according to the HRAC (Herbicide Resistance Action Committee) classification on mode of action 2010 (see e.g http://www.hracglobal.com/pages/classificationofherbicidesiteofaction.aspx) were tested alongside two non-resistant biotypes (14-116 and 13-243), see Tables 1 and 2 below.
(§3) For the post-emergence treatment, the test plants were first grown to a height of 3 to 15 cm, depending on the plant habit, and only then treated with the active ingredients which had been suspended or emulsified in water. For this purpose, the test plants were either sown directly and grown in the same containers, or they were first grown separately as seedlings and transplanted into the test containers a few days prior to treatment.
(§4) Depending on the species, the plants were kept at 10-25° C. or 20-35° C. The test period extended over 2 to 4 weeks. During this time, the plants were tended, and their response to the individual treatments was evaluated.
(§5) The racemic mixture (±)-2-exo-(2-Methylbenzyloxy)-1-methyl-4-isopropyl-7-oxabicyclo[2.2.1]heptane was used as herbicide A and formulated as emulsifiable concentrates with an active ingredient concentration of 50 g/l, 100 g/l or 750 g/l respectively.
(§6) Flufenacet was used as a commercial concentrated solution formulation having an active ingredient concentration of 500 g/l (Cadou).
(§7) Imazamox was used as a water dispersible granule (70% WG).
(§8) Evaluation of the herbicidal activity was carried out using a scale from 0 to 100. 100 means complete destruction of at least the aerial moieties, and 0 means no damage, or normal course of growth. A good herbicidal activity is given at values of at least 70 and a very good herbicidal activity is given at values of at least 85.

[2] = system: ryegrass (LOLMU) biotypes; assay: Greenhouse test, control of resistant weed biotypes, post-emergence, ryegrass; type: in vivo, Lolium multiflorum; settings: post-emergence, scale 0 to 100
Procedure: as §1, §2, §3, §4, §5, §6, §7, §8

BRSNW = assay: Greenhouse test, solo and combination, post-emergence, 20 DAT; type: in vivo, Brassica napus; settings: solo application 15 g ai/ha
Procedure: (§9) The test plants have been seeded, separately for each species, in plastic containers in sandy loamy soil containing 5% of organic matter.
(§10) For the post-emergence treatment, the plants were first grown to the 2 leaf station (GS 12) and applied at GS 12-19 depending on the species. The herbicidal compositions were suspended or emulsified in water as distribution medium and sprayed using finely distributing nozzles.
(§11) The plants have been cultivated due to their individual requirements at 10-25° C. and 20-35° C. The plants were irrigated due to their necessity.
(§12) The racemic mixture (±)-2-exo-(2-Methylbenzyloxy)-1-methyl-4-isopropyl-7-oxabicyclo[2.2.1]heptane was used as herbicide A and formulated as emulsifiable concentrate having an active ingredient concentration of 750 g/l.
(§13) Cyhalofop-butyl (herbicide B.5) was used as an emulsifiable concentrate (EC) formulation having an active ingredient concentration of 200 g/l.
(§14) Metsulfuron-methyl (herbicide B.53) was used as a water soluble granule (SG) formulation having an active ingredient concentration of 20%.
(§15) Bispyribac-sodium (herbicide B.23) was used as a soluble concentrate (SL) formulation having an active ingredient concentration of 408 g/l.
(§16) Quizalofop-P-ethyl (herbicide B.217) was used as a suspension concentrate (SC) formulation having an active ingredient concentration of 106 g/l.
(§17) In the following experiments, the herbicidal activity for the individual herbicide compounds (solo and mixture applications) was assessed 20 days after treatment (DAT).
(§18) The evaluation for the damage on undesired weeds caused by the chemical compositions was carried out using a scale from 0 to 100%, compared to the untreated control plants. Here, 0 means no damage and 100 means complete destruction of the plants.
(§19) The plants used in the greenhouse experiments belonged to the following species:
(§20) E=X+Y−(X·Y/100) • where X=effect in percent using herbicide A at an application rate a; • Y=effect in percent using herbicide B at application rate b; • E=expected effect (in %) of herbicide A+herbicide B at application rates a+b.
(§21) The value E corresponds to the effect (plant damage or injury) which is to be expected if the activity of the individual compounds is additive. If the observed effect is higher than the value E calculated according to the Colby equation, a synergistic effect is present.
(§22) Tables 3 to 6 below relate the herbicidal activity, in greenhouse trials, of the individual actives and the combination applied at different rates and ratios, in post-emergence application at 20 days after treatment (DAT).

MATIN = assay: as above; type: in vivo, Matricaria inodora
Procedure: as §9, §10, §11, §12, §13, §14, §15, §16, §17, §18, §19, §20, §21, §22

GALAP = assay: as above; type: in vivo, Galium aparine
Procedure: as §9, §10, §11, §12, §13, §14, §15, §16, §17, §18, §19, §20, §21, §22

PAPRH = assay: as above; type: in vivo, Papaver rhoeas
Procedure: as §9, §10, §11, §12, §13, §14, §15, §16, §17, §18, §19, §20, §21, §22

LOLRI = assay: as above; type: in vivo, Lolium rigidum; settings: solo application 60 g ai/ha
Procedure: as §9, §10, §11, §12, §13, §14, §15, §16, §17, §18, §19, §20, §21, §22

ALOMY = assay: as above; type: in vivo, Alopecurus myosuroides
Procedure: as §9, §10, §11, §12, §13, §14, §15, §16, §17, §18, §19, §20, §21, §22

[3] = BT 09-591, resistant HRAC group A, B, K, 125 g ai/ha
[4] = BT 10-103, resistant HRAC group A, B, K, 125 g ai/ha
[5] = BT 10-123, resistant HRAC group A, B, C, 125 g ai/ha
[6] = BT 10-170, resistant HRAC group A, B, K, 125 g ai/ha
[7] = BT 11-146, resistant HRAC group K, 125 g ai/ha
[8] = BT 11-215, resistant HRAC group A, B, C, E, K, 125 g ai/ha
[9] = BT 14-116, Sensitive standard, 125 g ai/ha
[10] = BT 12-143, resistant HRAC group A, B, C, E, K, 125 g ai/ha
[11] = BT 12-165, resistant HRAC group A, B, E, K, 125 g ai/ha
[12] = BT 12-166, resistant HRAC group A, B, E, K, 125 g ai/ha
[13] = BT 12-307, resistant HRAC group B, F, K, O, 125 g ai/ha
[14] = BT 13-243, Sensitive standard, 125 g ai/ha
[15] = BT 13-304, resistant HRAC group A, B, E, K, 125 g ai/ha
[16] = BT 13-313, resistant HRAC group A, B, C, E, K, 125 g ai/ha

In the case of `CC(C)N(C(=O)COc1nnc(C(F)(F)F)s1)c1ccc(F)cc1` [Flufenacet, flufenacet], the Herbicidal activity [1, 3] is reported as 80, the Herbicidal activity ([1]; BT 09-591, resistant HRAC group A, B, K, 250 g ai/ha) is reported as 95 and the Herbicidal activity [1, 4] is reported as 75. The Herbicidal activity ([1]; BT 10-103, resistant HRAC group A, B, K, 250 g ai/ha) was 90, the Herbicidal activity [1, 5] was 80 and the Herbicidal activity ([1]; BT 10-123, resistant HRAC group A, B, C, 250 g ai/ha) was 95. The Herbicidal activity [1, 6] was 90, the Herbicidal activity ([1]; BT 10-170, resistant HRAC group A, B, K, 250 g ai/ha) was 95 and the Herbicidal activity [1, 7] was 70. It also gave a Herbicidal activity ([1]; BT 11-146, resistant HRAC group K, 250 g ai/ha) of 80, a Herbicidal activity [1, 8] of 75 and a Herbicidal activity ([1]; BT 11-215, resistant HRAC group A, B, C, E, K, 250 g ai/ha) of 95. It also gave a Herbicidal activity [1, 9] of 98, a Herbicidal activity ([1]; BT 14-116, Sensitive standard, 250 g ai/ha) of 100 and a Herbicidal activity [2, 10] of 60. It also gave a Herbicidal activity ([2]; BT 12-143, resistant HRAC group A, B, C, E, K, 250 g ai/ha) of 60, a Herbicidal activity [2, 11] of 60 and a Herbicidal activity ([2]; BT 12-165, resistant HRAC group A, B, E, K, 250 g ai/ha) of 60. The Herbicidal activity [2, 12] was 10, the Herbicidal activity ([2]; BT 12-166, resistant HRAC group A, B, E, K, 250 g ai/ha) was 60 and the Herbicidal activity [2, 13] was 15. The Herbicidal activity ([2]; BT 12-307, resistant HRAC group B, F, K, O, 250 g ai/ha) was 15, the Herbicidal activity [2, 14] was 80 and the Herbicidal activity ([2]; BT 13-243, Sensitive standard, 250 g ai/ha) was 95. It also gave a Herbicidal activity [2, 15] of 75, a Herbicidal activity ([2]; BT 13-304, resistant HRAC group A, B, E, K, 250 g ai/ha) of 75 and a Herbicidal activity [2, 16] of 35. It also gave a Herbicidal activity ([2]; BT 13-313, resistant HRAC group A, B, C, E, K, 250 g ai/ha) of 50.

Work on `COCc1cnc(C2=NC(C)(C(C)C)C(=O)N2)c(C(=O)O)c1` (centres unmarked) [Imazamox, imazamox] yielded a Herbicidal activity ([1]; BT 09-591, resistant HRAC group A, B, K, 62.5 g ai/ha) of 20, a Herbicidal activity [1, 3] of 50 and a Herbicidal activity ([1]; BT 10-103, resistant HRAC group A, B, K, 62.5 g ai/ha) of 60. For the same compound, the Herbicidal activity [1, 4] was 70, the Herbicidal activity ([1]; BT 10-123, resistant HRAC group A, B, C, 62.5 g ai/ha) was 60 and the Herbicidal activity [1, 5] was 70. The Herbicidal activity ([1]; BT 10-170, resistant HRAC group A, B, K, 62.5 g ai/ha) was 80, the Herbicidal activity [1, 6] was 95 and the Herbicidal activity ([1]; BT 11-146, resistant HRAC group K, 62.5 g ai/ha) was 75. The Herbicidal activity [1, 7] was 75, the Herbicidal activity ([1]; BT 11-215, resistant HRAC group A, B, C, E, K, 62.5 g ai/ha) was 85 and the Herbicidal activity [1, 8] was 85. It also gave a Herbicidal activity ([1]; BT 14-116, Sensitive standard, 62.5 g ai/ha) of 95, a Herbicidal activity [1, 9] of 95 and a Herbicidal activity ([2]; BT 12-143, resistant HRAC group A, B, C, E, K, 62.5 g ai/ha) of 65. For the same compound, the Herbicidal activity [2, 10] was 75, the Herbicidal activity ([2]; BT 12-165, resistant HRAC group A, B, E, K, 62.5 g ai/ha) was 70 and the Herbicidal activity [2, 11] was 85. It also gave a Herbicidal activity ([2]; BT 12-166, resistant HRAC group A, B, E, K, 62.5 g ai/ha) of 85, a Herbicidal activity [2, 12] of 98 and a Herbicidal activity ([2]; BT 12-307, resistant HRAC group B, F, K, O, 62.5 g ai/ha) of 80. It also gave a Herbicidal activity [2, 13] of 85, a Herbicidal activity ([2]; BT 13-243, Sensitive standard, 62.5 g ai/ha) of 90 and a Herbicidal activity [2, 14] of 85. The Herbicidal activity ([2]; BT 13-304, resistant HRAC group A, B, E, K, 62.5 g ai/ha) was 90, the Herbicidal activity [2, 15] was 85 and the Herbicidal activity ([2]; BT 13-313, resistant HRAC group A, B, C, E, K, 62.5 g ai/ha) was 80. It also gave a Herbicidal activity [2, 16] of 85.

For `COc1cc(OC)nc(Oc2cccc(Oc3nc(OC)cc(OC)n3)c2C(=O)O)n1` [bispyribac-sodium], the Herbicidal activity (BRSNW) was 98%, the Herbicidal activity (MATIN; solo application 60 g ai/ha) was 85% and the Herbicidal activity (MATIN; solo application 120 g ai/ha) was 90%. The Herbicidal activity (GALAP; solo application 15 g ai/ha) was 40%, the Herbicidal activity (GALAP; solo application 30 g ai/ha) was 65% and the Herbicidal activity (GALAP; solo application 120 g ai/ha) was 95%. It also gave a Herbicidal activity (PAPRH; solo application 15 g ai/ha) of 0%, a Herbicidal activity (PAPRH; solo application 60 g ai/ha) of 50% and a Herbicidal activity (PAPRH; solo application 120 g ai/ha) of 50%. It also gave a Herbicidal activity (LOLRI) of 5%, a Herbicidal activity (ALOMY; solo application 30 g ai/ha) of 0% and a Herbicidal activity (ALOMY; solo application 60 g ai/ha) of 0%.
